Patent EP4667458A1 (Kanaph Therapeutics Inc., priority 2023, dated 2024)

What follows are compounds tested against T1, KRAS^G12C::SOS1 (Homo sapiens, UniProt Q07889) (assay: KRAS G12C::SOS1 protein-protein interaction (PPI) inhibition assay (HTRF binding kit)).
T1 sequence (Q07889 1-1333): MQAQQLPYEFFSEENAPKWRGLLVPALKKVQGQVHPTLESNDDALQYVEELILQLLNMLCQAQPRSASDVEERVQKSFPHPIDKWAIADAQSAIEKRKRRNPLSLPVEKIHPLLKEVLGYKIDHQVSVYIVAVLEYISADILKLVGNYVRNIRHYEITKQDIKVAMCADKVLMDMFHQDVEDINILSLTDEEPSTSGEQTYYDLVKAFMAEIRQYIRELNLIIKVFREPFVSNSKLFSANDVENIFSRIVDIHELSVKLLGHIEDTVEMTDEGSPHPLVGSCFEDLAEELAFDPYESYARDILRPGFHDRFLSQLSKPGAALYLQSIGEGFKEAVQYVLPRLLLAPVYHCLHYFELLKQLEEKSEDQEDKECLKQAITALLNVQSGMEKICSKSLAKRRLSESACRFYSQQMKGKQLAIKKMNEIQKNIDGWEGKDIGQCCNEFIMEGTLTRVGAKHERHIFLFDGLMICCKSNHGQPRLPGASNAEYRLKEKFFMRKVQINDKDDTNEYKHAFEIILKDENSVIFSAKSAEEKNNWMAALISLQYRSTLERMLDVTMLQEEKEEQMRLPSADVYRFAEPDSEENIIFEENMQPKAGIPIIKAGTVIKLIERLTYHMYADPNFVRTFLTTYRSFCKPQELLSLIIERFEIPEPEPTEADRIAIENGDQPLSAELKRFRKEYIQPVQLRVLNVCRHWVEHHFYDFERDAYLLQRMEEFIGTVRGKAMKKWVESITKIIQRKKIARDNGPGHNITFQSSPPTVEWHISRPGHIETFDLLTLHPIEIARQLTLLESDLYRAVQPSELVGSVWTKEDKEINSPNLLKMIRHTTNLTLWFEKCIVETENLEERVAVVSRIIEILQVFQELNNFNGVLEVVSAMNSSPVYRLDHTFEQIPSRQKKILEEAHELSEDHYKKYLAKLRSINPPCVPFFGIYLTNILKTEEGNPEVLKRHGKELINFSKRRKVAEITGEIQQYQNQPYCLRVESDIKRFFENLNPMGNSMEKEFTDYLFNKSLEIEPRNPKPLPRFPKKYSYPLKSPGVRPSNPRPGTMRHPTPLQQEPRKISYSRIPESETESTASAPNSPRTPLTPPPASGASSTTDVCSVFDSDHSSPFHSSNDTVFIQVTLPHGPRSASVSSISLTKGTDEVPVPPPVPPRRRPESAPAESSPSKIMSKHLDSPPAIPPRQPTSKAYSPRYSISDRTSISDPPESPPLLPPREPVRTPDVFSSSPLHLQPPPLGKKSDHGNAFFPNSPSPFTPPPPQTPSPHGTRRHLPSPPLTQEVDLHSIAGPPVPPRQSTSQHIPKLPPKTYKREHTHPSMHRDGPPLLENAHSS
For `Cc1ncccc1-c1cccc(-n2nc(C(=O)N[C@H](C)c3cc(N)cc(C(F)(F)F)c3)ccc2=O)c1` [Example 324, N-[(1R)-1-[3-amino-5-(trifluoromethyl)phenyl]ethyl]-1-[3-(2-methyl-3-pyridyl)phenyl]-6-oxo-pyridazine-3-carboxamide], the IC50 was under 1 µM.
Work on `Cc1ncnn1-c1cccc(-n2nc(C(=O)N[C@H](C)c3cc(N)cc(C(F)(F)F)c3)ccc2=O)c1` [Example 211, N-[(1R)-1-[3-amino-5-(trifluoromethyl)phenyl]ethyl]-1-[3-(5-methyl-1,2,4-triazol-1-yl)phenyl]-6-oxo-pyridazine-3-carboxamide] yielded an IC50 of under 1 µM.
With `COc1ccc(F)c(-n2cc(C(=O)N[C@H](C)c3cccc(C(F)(F)CO)c3F)ccc2=O)c1` [Example 177, N-[(1R)-1-[3-(1,1-difluoro-2-hydroxy-ethyl)-2-fluoro-phenyl]ethyl]-1-(2-fluoro-5-methoxyphenyl)-6-oxo-pyridine-3-carboxamide] the IC50 was under 1 µM.
With `CNCc1cc(F)c(F)cc1-c1ccc([C@@H](C)NC(=O)c2ccc(=O)n(-c3cccnc3F)n2)s1` [Example 401, N-[(1R)-1-(5-{4,5-difluoro-2-[(methylamino)methyl]phenyl}thiophen-2-yl)ethyl]-1-(2-fluoropyridin-3-yl)-6-oxo-1,6-dihydropyridazine-3-carboxamide] the IC50 was under 1 µM.
`COc1ccc(-n2nc(C(=O)N[C@H](C)c3cc(N)cc(C(F)(F)F)c3)ccc2=O)cc1C(=O)N(C)C` [Example 207, N-[(1R)-1-[3-amino-5-(trifluoromethyl)phenyl]ethyl]-1-[3-(dimethylcarbamoyl)-4-methoxy-phenyl]-6-oxo-pyridazine-3-carboxamide] was tested, and the IC50 was under 1 µM.
Work on `Cc1nnnn1-c1cccc(-n2nc(C(=O)N[C@H](C)c3cc(N)cc(C(F)(F)F)c3)ccc2=O)c1` [Example 373, N-[(1R)-1-[3-amino-5-(trifluoromethyl)phenyl]ethyl]-1-[3-(5-methyltetrazol-1-yl)phenyl]-6-oxo-pyridazine-3-carboxamide] yielded an IC50 of under 1 µM.
`C[C@@H](NC(=O)c1ccc(=O)n(-c2cccc(C(=O)N3CCCC3)c2)n1)c1cc(N)cc(C(F)(F)F)c1` [Example 197, N-[(1R)-1-[3-amino-5-(trifluoromethyl)phenyl]ethyl]-6-oxo-1-[3-(pyrrolidine-1-carbonyl)phenyl]pyridazine-3-carboxamide] was tested, and the IC50 was under 1 µM.
`CNCc1ccc(Cl)cc1-c1ccc([C@@H](C)NC(=O)c2ccc(=O)n(-c3cccnc3F)c2)s1` [Example 277, N-[(1R)-1-[5-[5-chloro-2-(methylaminomethyl)phenyl]-2-thienyl]ethyl]-1-(2-fluoro-3-pyridyl)-6-oxo-pyridine-3-carboxamide] was tested, and the IC50 was under 1 µM.
`C[C@@H](NC(=O)c1ccc(=O)n(-c2ccc(OC(F)F)cc2)n1)c1cc(N)cc(C(F)(F)F)c1` [Example 198, N-[(1R)-1-[3-amino-5-(trifluoromethyl)phenyl]ethyl]-1-[4-(difluoromethoxy)phenyl]-6-oxo-pyridazine-3-carboxamide] showed an IC50 of under 1 µM.
Work on `COc1cnccc1-n1nc(C(=O)N[C@H](C)c2cc(N)cc(C(F)(F)F)c2)ccc1=O` [Example 145, N-[(1R)-1-[3-amino-5-(trifluoromethyl)phenyl]ethyl]-1-(3-methoxy-4-pyridyl)-6-oxo-pyridazine-3-carboxamide] yielded an IC50 of under 1 µM.
For `CNCc1cc2c(cc1-c1ccc([C@@H](C)NC(=O)c3ccc(=O)n(-c4ccccc4F)n3)s1)CC2` [Example 266, 1-(2-fluorophenyl)-N-[(1R)-1-[5-[4-(methylaminomethyl)-3-bicyclo [4.2.0]octa-1,3,5-trienyl]-2-thienyl]ethyl]-6-oxo-pyridazine-3-carboxamide], the IC50 was under 1 µM.
For `C[C@@H](NC(=O)c1ccc(=O)n(-c2ccccc2F)n1)c1cccc(C#N)c1F` [Example 260, N-[(1R)-1-(3-cyano-2-fluoro-phenyl)ethyl]-1-(2-fluorophenyl)-6-oxo-pyridazine-3-carboxamide], the IC50 was under 1 µM.
`C[C@@H](NC(=O)c1ccc(=O)n(-c2ccccc2F)n1)c1cccc(C(F)(F)F)c1F` [Example 259, 1-(2-fluorophenyl)-N-[(1R)-1-[2-fluoro-3-(trifluoromethyl)phenyl]ethyl]-6-oxo-pyridazine-3-carboxamide] showed an IC50 of under 1 µM.
For `COc1ccc(-n2cc(C(=O)N[C@H](C)c3cc(N)cc(C(F)(F)F)c3)ccc2=O)cc1` [Example 199, N-[(1R)-1-[3-amino-5-(trifluoromethyl)phenyl]ethyl]-1-(4-methoxyphenyl)-6-oxo-pyridine-3-carboxamide], the IC50 was under 1 µM.
Work on `C[C@@H](NC(=O)c1ccc(=O)n(-c2cccc(C(=O)N(C)C)c2)c1)c1cc(N)cc(C(F)(F)F)c1` [Example 166, N-[(1R)-1-[3-amino-5-(trifluoromethyl)phenyl]ethyl]-1-[3-(dimethylcarbamoyl)phenyl]-6-oxo-pyridine-3-carboxamide] yielded an IC50 of under 1 µM.
With `C[C@@H](NC(=O)c1ccc(=O)n(-c2cccc(-c3cccnc3)c2)n1)c1cc(N)cc(C(F)(F)F)c1` [Example 338, N-[(1R)-1-[3-amino-5-(trifluoromethyl)phenyl]ethyl]-6-oxo-1-[3-(3-pyridyl)phenyl]pyridazine-3-carboxamide] the IC50 was under 1 µM.
Compound `COCCNC(=O)c1cccc(-n2nc(C(=O)N[C@H](C)c3cc(N)cc(C(F)(F)F)c3)ccc2=O)c1F` [Example 232, (R)-N-(1-(3-amino-5-(trifluoromethyl)phenyl)ethyl)-1-(2-fluoro-3-((2-methoxyethyl)carbamoyl)phenyl)-6-oxo-1,6-dihydropyridazine-3-carboxamide] has an IC50 of under 1 µM.
Work on `C[C@@H](NC(=O)c1ccc(=O)n(Cc2ccccn2)n1)c1cc(N)cc(C(F)(F)F)c1` [Example 225, N-[(1R)-1-[3-amino-5-(trifluoromethyl)phenyl]ethyl]-6-oxo-1-(2-pyridylmethyl)pyridazine-3-carboxamide] yielded an IC50 of under 1 µM.
With `C[C@@H](NC(=O)c1ccc(=O)n(-c2cccc(C(=O)N3CCCC3)c2)n1)c1cccc(C(F)(F)CO)c1F` [Example 194, N-[(1R)-1-[3-(1,1-difluoro-2-hydroxy-ethyl)-2-fluoro-phenyl]ethyl]-6-oxo-1-[3-(pyrrolidine-1-carbonyl)phenyl]pyridazine-3-carboxamide] the IC50 was under 1 µM.
`C[C@@H](NC(=O)c1ccc(=O)n(-c2cccc(-c3cnn(C)c3)c2)n1)c1cccc(C(F)(F)CO)c1F` [Example 340, N-[(1R)-1-[3-(1,1-difluoro-2-hydroxy-ethyl)-2-fluoro-phenyl]ethyl]-1-[3-(1-methylpyrazol-4-yl)phenyl]-6-oxo-pyridazine-3-carboxamide] gave an IC50 of under 1 µM.
Compound `CNCc1ccccc1-c1ccc([C@@H](C)NC(=O)c2nn(-c3ccccc3F)c(=O)c3ccsc23)s1` [Example 269, 5-(2-fluorophenyl)-N-[(1R)-1-[5-[2-(methylaminomethyl)phenyl]-2-thienyl]ethyl]-4-oxo-thieno[2,3-d]pyridazine-7-carboxamide] has an IC50 of under 1 µM.
`C[C@@H](NC(=O)c1ccc(=O)n(CCN(C)C)n1)c1cc(N)cc(C(F)(F)F)c1` [Example 229, N-[(1R)-1-[3-amino-5-(trifluoromethyl)phenyl]ethyl]-1-[2-(dimethylamino)ethyl]-6-oxo-pyridazine-3-carboxamide] gave an IC50 of 1 to 10 µM.
